Experimental findings from patent US20200297601A1, “COMPOSITION FOR SKIN MOISTURIZATION OR SKIN WHITENING, CONTAINING PENTACYCLIC TRITERPENE CAFFEIC ACID ESTERS” (AMOREPACIFIC CORPORATION, priority 2016, published 2020) are described below.

The subject of the assay is filaggrin. The assay is described as follows: Immunofluorescent staining and imaging of filaggrin in artificial skin. Format: cell-based. To be noted: artificial skin (AmoreReskin) surface treated for 4 days, FIG. 3. As to the method:
The skin moisturizing effect of Example 1 and Example 4 was evaluated by immunofluorescent staining and imaging of filaggrin which is known as an important skin moisturizing factor.
The surface of artificial skin (AmoreReskin™) was treated with 2 ppm ceramide PC 104, Example 1 and Example 4 for 4 days and then immunofluorescent staining was conducted. The immunofluorescent staining was conducted as follows.
i. Artificial skin is immersed in OCT solution (optimal cutting temperature, Tissue Tek) and stored at −70° C.
ii. The artificial skin is prepared into 10-μm thick sections using a cryotome and fixed on a slide.
iii. Lines are drawn around the artificial skin sections using a PAP pen.
iv. The slide is dried at room temperature for at least 8 hours.
v. The artificial skin sections are washed with PBS and […] in OCT solution.
vi. The artificial skin sections are treated with a blocking solution (1% BSA in PBS) for 30 minutes.
vii. The sections are treated with anti-filaggrin antibody (ab24584, Abcam) for 2 hours.
viii. The sections are treated with Texas Red anti-rabbit antibody (T6391, Life technologies) diluted to 1:200 in a blocking solution for 1 hour.
ix. The sections are stained with DAPI (4′,6-diamidino-2-phenylindole) for 5 minutes.
x. The sections are washed with PBS 3 times.
xi. […]

Consider “3β,23,28-Trihydroxy-12-oleanene 23-caffeate [Example 1]”, for which the “filaggrin protein (immunofluorescence)” value is given as “significantly increased”.
